In US20160158317A1, “Antimicrobial Peptide Variants and Polynucleotides Encoding Same” (Adenium Biotech A/S, priority 2010, published 2016):
Where a SMILES comes first, the peptide text is derived from it. Bridges are numbered along the chain shown (N, C = ends).

assay: Determination of the protein binding (90% serum, 30 kDa filter, HPLC); type: in vitro ADME; details: serum
Description: Protein binding assays were performed as follows. The purified peptides were mixed with 90% serum and centrifuged through a 30 kDa filter. The ultra-filtrate and the non filtrated serum samples were quantified by HPLC measurements and the protein binding was subsequently calculated.

Row | SMILES | fraction unbound
1 | CC(C)[C@@H]1NC(=O)[C@H](CC(N)=O)NC(=O)[C@H](Cc2c[nH]c3ccccc23)NC(=O)[C@@H](NC(=O)[C@H](Cc2ccccc2)NC(=O)CN)CSSC[C@@H](C(=O)N[C@@H](CC(N)=O)C(=O)O)NC(=O)[C@H](CCCNC(=N)N)NC(=O)[C@H](CCCNC(=N)N)NC(=O)[C@H](Cc2ccc(O)cc2)NC(=O)[C@@H]2CSSC[C@H](NC1=O)C(=O)N[C@@H](C)C(=O)N[C@@H](Cc1ccc(O)cc1)C(=O)N[C@@H](CCCNC(=N)N)C(=O)N[C@@H](CC(N)=O)C(=O)NCC(=O)N[C@@H](CCCCN)C(=O)N[C@@H](CCCNC(=N)N)C(=O)N[C@@H](C)C(=O)N2 [compound 411] (H-GFCWNVCAYRNGKRACYRRCN-OH; disulfide 3-20, 7-16 (inferred); N-terminus and C-terminus assumed) | 0.14
2 | CC(C)[C@@H]1NC(=O)[C@H](CCCNC(=N)N)NC(=O)[C@H](CCCCN)NC(=O)CNC(=O)[C@H](CC(N)=O)NC(=O)[C@H](CCCNC(=N)N)NC(=O)[C@H](Cc2ccc(O)cc2)NC(=O)[C@H](C)NC(=O)[C@@H]2CSSC[C@H](NC1=O)C(=O)N[C@@H](Cc1ccc(O)cc1)C(=O)N[C@@H](CCCNC(=N)N)C(=O)N[C@@H](CCCNC(=N)N)C(=O)N[C@H](C(=O)N[C@@H](CC(N)=O)C(=O)O)CSSC[C@H](NC(=O)[C@H](Cc1ccccc1)NC(=O)CN)C(=O)N[C@@H](Cc1c[nH]c3ccccc13)C(=O)N[C@@H](CCCNC(=N)N)C(=O)N[C@@H](C)C(=O)N2 [compound 417] (H-GFCWRACAYRNGKRVCYRRCN-OH; disulfide 3-20, 7-16 (inferred); N-terminus and C-terminus assumed) | 0.05
3 | CC(C)[C@@H]1NC(=O)CNC(=O)[C@H](CC(N)=O)NC(=O)[C@H](CCCNC(=N)N)NC(=O)[C@H](Cc2ccc(O)cc2)NC(=O)[C@H](C)NC(=O)[C@@H]2CSSC[C@H](NC(=O)[C@H](C)NC(=O)[C@H](CCCNC(=N)N)NC1=O)C(=O)N[C@@H](Cc1ccc(O)cc1)C(=O)N[C@@H](CCCNC(=N)N)C(=O)N[C@@H](CCCNC(=N)N)C(=O)N[C@H](C(=O)N[C@@H](CC(N)=O)C(=O)O)CSSC[C@H](NC(=O)[C@H](Cc1ccccc1)NC(=O)CN)C(=O)N[C@@H](Cc1c[nH]c3ccccc13)C(=O)N[C@@H](CCCNC(=N)N)C(=O)N[C@@H](C)C(=O)N2 [compound 418] (H-GFCWRACAYRNGVRACYRRCN-OH; disulfide 3-20, 7-16 (inferred); N-terminus and C-terminus assumed) | 0.08
4 | CC(C)[C@@H]1NC(=O)[C@H](CCCNC(=N)N)NC(=O)[C@H](Cc2c[nH]c3ccccc23)NC(=O)[C@@H](NC(=O)[C@H](Cc2ccccc2)NC(=O)CN)CSSC[C@@H](C(=O)N[C@@H](CC(N)=O)C(=O)O)NC(=O)[C@H](CCCNC(=N)N)NC(=O)[C@H](CCCNC(=N)N)NC(=O)[C@H](Cc2ccc(O)cc2)NC(=O)[C@@H]2CSSC[C@H](NC1=O)C(=O)N[C@@H](C)C(=O)N[C@@H](Cc1ccc(O)cc1)C(=O)N[C@@H](CO)C(=O)N[C@@H](CC(N)=O)C(=O)NCC(=O)N[C@@H](CCCCN)C(=O)N[C@@H](CCCNC(=N)N)C(=O)N[C@@H](C(C)C)C(=O)N2 [compound 425] (H-GFCWRVCAYSNGKRVCYRRCN-OH; disulfide 3-20, 7-16 (inferred); N-terminus and C-terminus assumed) | 0.31
5 | CC(C)C[C@@H]1NC(=O)CNC(=O)[C@H](CC(N)=O)NC(=O)[C@H](CCCNC(=N)N)NC(=O)[C@H](CO)NC(=O)[C@H](C)NC(=O)[C@@H]2CSSC[C@H](NC(=O)[C@H](C(C)C)NC(=O)[C@H](CCCNC(=N)N)NC1=O)C(=O)N[C@@H](Cc1ccc(O)cc1)C(=O)N[C@@H](CCCNC(=N)N)C(=O)N[C@@H](CCCNC(=N)N)C(=O)N[C@H](C(=O)N[C@@H](CC(N)=O)C(=O)O)CSSC[C@H](NC(=O)[C@H](Cc1ccccc1)NC(=O)CN)C(=O)N[C@@H](Cc1c[nH]c3ccccc13)C(=O)N[C@@H](CCCNC(=N)N)C(=O)N[C@@H](C(C)C)C(=O)N2 [compound 435] (H-GFCWRVCASRNGLRVCYRRCN-OH; disulfide 3-20, 7-16 (inferred); N-terminus and C-terminus assumed) | 0.15
6 | CC(C)[C@@H]1NC(=O)[C@H](CCCNC(=N)N)NC(=O)[C@H](CCCCN)NC(=O)CNC(=O)[C@H](CC(N)=O)NC(=O)[C@H](CO)NC(=O)[C@H](Cc2ccc(O)cc2)NC(=O)[C@H](Cc2c[nH]cn2)NC(=O)[C@@H]2CSSC[C@H](NC1=O)C(=O)N[C@@H](Cc1ccc(O)cc1)C(=O)N[C@@H](CCCNC(=N)N)C(=O)N[C@@H](CCCNC(=N)N)C(=O)N[C@H](C(=O)N[C@@H](CC(N)=O)C(=O)O)CSSC[C@H](NC(=O)[C@H](Cc1ccccc1)NC(=O)CN)C(=O)N[C@@H](Cc1c[nH]c3ccccc13)C(=O)N[C@@H](CCCNC(=N)N)C(=O)N[C@@H](C(C)C)C(=O)N2 [compound 439] (H-GFCWRVCHYSNGKRVCYRRCN-OH; disulfide 3-20, 7-16 (inferred); N-terminus and C-terminus assumed) | 0.08
7 | CC(C)C[C@@H]1NC(=O)CNC(=O)[C@H](CC(N)=O)NC(=O)[C@H](CCCNC(=N)N)NC(=O)[C@H](CCCCN)NC(=O)[C@H](C)NC(=O)[C@@H]2CSSC[C@H](NC(=O)[C@H](C(C)C)NC(=O)[C@H](CCCNC(=N)N)NC1=O)C(=O)N[C@@H](Cc1ccc(O)cc1)C(=O)N[C@@H](CCCNC(=N)N)C(=O)N[C@@H](CCCNC(=N)N)C(=O)N[C@H](C(=O)N[C@@H](CC(N)=O)C(=O)O)CSSC[C@H](NC(=O)[C@H](Cc1ccccc1)NC(=O)CN)C(=O)N[C@@H](Cc1c[nH]c3ccccc13)C(=O)N[C@@H](Cc1ccc(O)cc1)C(=O)N[C@@H](C)C(=O)N2 [compound 450] (H-GFCWYACAKRNGLRVCYRRCN-OH; disulfide 3-20, 7-16 (inferred); N-terminus and C-terminus assumed) | 0.02
8 | CC(C)C[C@@H]1NC(=O)CNC(=O)[C@H](CC(N)=O)NC(=O)[C@H](CCCNC(=N)N)NC(=O)[C@H](CCCNC(=N)N)NC(=O)[C@H](C)NC(=O)[C@@H]2CSSC[C@H](NC(=O)[C@H](CO)NC(=O)[C@H](CCCNC(=N)N)NC1=O)C(=O)N[C@@H](Cc1ccc(O)cc1)C(=O)N[C@@H](CCCNC(=N)N)C(=O)N[C@@H](CCCNC(=N)N)C(=O)N[C@H](C(=O)N[C@@H](CC(N)=O)C(=O)O)CSSC[C@H](NC(=O)[C@H](Cc1ccccc1)NC(=O)CN)C(=O)N[C@@H](Cc1c[nH]c3ccccc13)C(=O)N[C@@H](Cc1ccc(O)cc1)C(=O)N[C@@H](C(C)C)C(=O)N2 [compound 453] (H-GFCWYVCARRNGLRSCYRRCN-OH; disulfide 3-20, 7-16 (inferred); N-terminus and C-terminus assumed) | 0.08
9 | CC(C)[C@@H]1NC(=O)[C@@H]2CSSC[C@H](NC(=O)[C@H](CCCCN)NC(=O)[C@H](CCCNC(=N)N)NC(=O)[C@H](C)NC(=O)CNC(=O)[C@H](CC(N)=O)NC(=O)[C@H](CCCNC(=N)N)NC(=O)[C@H](CCCCN)NC1=O)C(=O)N[C@@H](Cc1c[nH]cn1)C(=O)N[C@@H](CCCNC(=N)N)C(=O)N[C@@H](CCCNC(=N)N)C(=O)N[C@H](C(=O)N[C@@H](CC(N)=O)C(=O)O)CSSC[C@H](NC(=O)[C@H](Cc1ccccc1)NC(=O)CN)C(=O)N[C@@H](Cc1c[nH]c3ccccc13)C(=O)N[C@@H](Cc1ccc(O)cc1)C(=O)N[C@@H](C(C)C)C(=O)N2 [compound 454] (H-GFCWYVCVKRNGARKCHRRCN-OH; disulfide 3-20, 7-16 (inferred); N-terminus and C-terminus assumed) | 0.1
10 | CC(C)[C@@H]1NC(=O)[C@@H]2CSSC[C@H](NC(=O)[C@H](C)NC(=O)[C@H](CCCNC(=N)N)NC(=O)[C@H](CCCCN)NC(=O)CNC(=O)[C@H](CC(N)=O)NC(=O)[C@H](CCCCN)NC(=O)[C@H](Cc3ccc(O)cc3)NC1=O)C(=O)N[C@@H](Cc1ccc(O)cc1)C(=O)N[C@@H](CCCNC(=N)N)C(=O)N[C@@H](CCCNC(=N)N)C(=O)N[C@H](C(=O)N[C@@H](CC(N)=O)C(=O)O)CSSC[C@H](NC(=O)[C@H](Cc1ccccc1)NC(=O)CN)C(=O)NCC(=O)N[C@@H](CCCNC(=N)N)C(=O)N[C@@H](C(C)C)C(=O)N2 [compound 493] (H-GFCGRVCVYKNGKRACYRRCN-OH; disulfide 3-20, 7-16 (inferred); N-terminus and C-terminus assumed) | 0.23
11 | CC(C)[C@@H]1NC(=O)[C@H](CCCCN)NC(=O)[C@H](Cc2c[nH]c3ccccc23)NC(=O)[C@@H](NC(=O)[C@H](Cc2ccccc2)NC(=O)CN)CSSC[C@@H](C(=O)N[C@@H](CC(N)=O)C(=O)O)NC(=O)[C@H](CCCNC(=N)N)NC(=O)[C@H](CCCNC(=N)N)NC(=O)[C@H](Cc2ccc(O)cc2)NC(=O)[C@@H]2CSSC[C@H](NC1=O)C(=O)N[C@@H](C)C(=O)N[C@@H](CCCNC(=N)N)C(=O)N[C@@H](CCCNC(=N)N)C(=O)N[C@@H](CC(N)=O)C(=O)NCC(=O)N[C@@H](C)C(=O)N[C@@H](CCCNC(=N)N)C(=O)N[C@@H](CO)C(=O)N2 [compound 504] (H-GFCWKVCARRNGARSCYRRCN-OH; disulfide 3-20, 7-16 (inferred); N-terminus and C-terminus assumed) | 0.05
12 | CC(C)[C@@H]1NC(=O)[C@@H]2CSSC[C@H](NC(=O)[C@H](CO)NC(=O)[C@H](CCCNC(=N)N)NC(=O)[C@H](CCCCN)NC(=O)CNC(=O)[C@H](CC(N)=O)NC(=O)[C@H](CO)NC(=O)[C@H](Cc3ccc(O)cc3)NC1=O)C(=O)N[C@@H](Cc1c[nH]cn1)C(=O)N[C@@H](CCCNC(=N)N)C(=O)N[C@@H](CCCNC(=N)N)C(=O)N[C@H](C(=O)N[C@@H](CC(N)=O)C(=O)O)CSSC[C@H](NC(=O)[C@H](Cc1ccccc1)NC(=O)CN)C(=O)N[C@@H](Cc1c[nH]c3ccccc13)C(=O)N[C@@H](CCCNC(=N)N)C(=O)N[C@@H](C(C)C)C(=O)N2 [compound 509] (H-GFCWRVCVYSNGKRSCHRRCN-OH; disulfide 3-20, 7-16 (inferred); N-terminus and C-terminus assumed) | 0.13
